Structures can show the parent of a compound that is named as a salt.
Assay: Particle size distribution of micronized escitalopram oxalate batches (laser light diffraction, Malvern instrument)
Type: physicochemical
Conditions: micronized powder; for D50/D95: ratio of D50 to D95; for D50: size below which 50 volume percent of particles lie; for D50 / D95: Malvern instrument; for D95: size below which 95 volume percent of particles lie
Source text: The term D95 as used herein is defined as a size of particles where 95 volume percent of the particles have sizes less than the value given. The term D50 defines a size where 50 volume percent of the particles have sizes less than the value given.
The particle size distributions for the present application can measured using laser light diffraction equipment, such as are sold by Malvern Instruments Ltd., Malvern, Worcestershire, United Kingdom. Other types of equipment are also suitable for particle size distribution determinations.
The obtained solid was micronized in a jet mill to produce desired particle sizes. The feed pressure was adjusted to about 2 Kg/cm^2; the chamber pressure was adjusted to about 1.5 Kg/cm^2 and the feed rate to about 1 to 2 kg/hour. The material fed into the micronizer through a charging hopper. The obtained micronized material was collected into a container.

D50/D95 (listed as 1)	D50 (listed as 1)	D95 (listed as 1)	D50/D95 (listed as 2)	D50 (listed as 2)	D95 (listed as 2)	SMILES
0.4293	3.95	9.20				CN(C)CCCC1(c2ccc(F)cc2)OCc2cc(C#N)ccc21 (stereo not drawn) [Batch 1, S-(+)-1-[3-(dimethyl-amino)propyl]-1-(p-fluorophenyl)-5-phthalancarbonitrile oxalate]
			0.4653	4.56	9.80	CN(C)CCCC1(c2ccc(F)cc2)OCc2cc(C#N)ccc21 (stereo not drawn) [Batch 2, S-(+)-1-[3-(dimethyl-amino)propyl]-1-(p-fluorophenyl)-5-phthalancarbonitrile oxalate]

Source: patent US20090048336A1, “ESCITALOPRAM OXALATE POWDERS” (priority 2007, published 2009)
